The values that follow come from US8658592B2, “Biologically active peptides and their new uses” (priority 2005, dated 2014).

Marks after values point to notes of the source that are not given here. Ends that are not written are not given here. Peptide text beside a SMILES is read from it.

The subject of assay [1] is carrageenin induced foot swelling. The assay is described as follows: carrageenin induced foot swelling in rats. The assay is classed as in vivo, Wistar rats. As for the experimental part: Wistar rats were divided randomly into DXM group (0.2 mg/kg/day), saline control group (1 ml/day), and three dosages of CMS-030 groups (2, 10, 20 μg/ml/day). All of the drugs were diluted to 0.5 ml with saline, and were administered intraperitoneally (i.p) daily. Two weeks after drug administration, 0.15 ml of 1% carrageenin saline solution was applied to the right foot by subcutaneous injection. 0.5 hr later, the circumference of right foot was measured precisely, and foot swelling was calculated by subtracting the pre-challenge circumference from the post-challenge value Inhibition index (%)=(foot swelling of saline control group−foot swelling of drug group)/foot swelling of saline control group×100%.

Assay [2] deals with duck hepatitis B virus (DHBV). As to the kind of experiment: Chongqing duck hepatitis B animal model: serum DHBV DNA and DHBsAg. In kind it is in vivo, Chongqing ducks. On the procedure: CMS-017 dissolved in saline was applied to Chongqing duck hepatitis B animal model by intramuscular injection for 28 days. The serum levels of DHBV DNA and DHBsAg (duck hepatitis B surface antigen) were observed by serum dot-blot hybridization and ELISA respectively and compared with blank control.
0.1 ml DHBV DNA positive serum (5×10^7 copies/ml) was inoculated into the abdominal cavity of one-day old Chongqing ducks to set up the hepatitis animal model. 10 days after inoculation, blood samples were collected from the external jugular vein and success of infection was confirmed by dot-blot hybridization with DHBV DNA probe labeled with digoxi^[3].
2) CMS-017 group (n=12): 200 μg/kg/day CMS-017 (dissolved in 1 ml normal saline) applied by intramuscular injection, once per day.
The treatment lasted for 4 weeks, and observation continued for another one week after termination of treatment. 1 ml blood samples were drawn from the external jugular vein on days 0, 7, 14, 21, 28, and 35 from the start of treatment. The sera were isolated^[4] and stored at −20° C. until analysis.
DHBV DNA probe was fluorescent-labeled according to the labeling kit protocol from the manufacturer (Roche Co.). Duck sera were dot-blotted (2 dot per sample) onto nitrocellulose membrane and hybridized with fluorescent-labeled probe for DHBV DNA quantitation^[3]. DHBV DNA 40 μl+DHBsAg 100 μl was used as internal standard. CDP-Star fluorimetry reagent was used for amplification of the fluorescence. Vuego Scan (Brisa-620st) scanner was used for film scanning, and Discovery Series Quantity One software for quantitative analysis of the blots. The blot value was described as “volume” (volume=intensity×mm^2)
DHBsAg level was determined by ELISA method^[5-8], and the O.D value was obtained by ELISA reader (Bio-TEK Co.) at 490 nm.

Assay [3] deals with human hepatitis B virus (HBV), 2.2.15 cell line. As to the kind of experiment: Test 1: inhibition of HBsAg and HBeAg in 2.2.15 cells (ELISA). The note with it: 400 μg/ml. In kind it is cell-based. As for the experimental part:
2.2.15 cells at log phase were harvested and adjusted to 2×10^6/ml with MEM (containing 10% fetal bovine serum, […]). The suspension was inoculated on a 24-well culture plate with 1.5 ml per well, and incubated at 37° C., 5% CO2 for 48 hours for attachment. The peptides were added to the final concentration of 400 μg/ml with 3 parallel wells per sample. One set of blank control (3 wells) was also prepared, in which the peptide was replaced with culture medium. The plate was incubated at 37° C. for 4 days, the culture medium was then exchanged with freshly prepared medium (of the same composition as the original), and the plate was incubated for a further 4 days. By the end of incubation, the supernatants of the culture were collected, and the titers of HBsAg and HBeAg were determined by ELISA method according to the instruction of the detection kit manufacturer.
On the technique in general: ELISA stands for enzyme-linked immunosorbent assay.

Assay [4] shares this test system. The assay is described as follows: Test 2: inhibition of HBV-DNA in 2.2.15 cells (fluorescence quantitative PCR). In kind it is cell-based. To be noted: 160 μg/ml. As for the experimental part: The preparation and incubation of cell suspension was repeated as in test 1 above, but at the peptide concentration of 160 μg/ml.
The test system of another assay is skin allograft. As to the kind of experiment: survival of skin allograft in mice (CMS-014). The assay is classed as in vivo, Balb/c mice (C57BL/6 donors). On the procedure: Half of the mice were male and half were female.
The test substances were dissolved in 0.5 ml saline and intraperitoneally injected for 5 days before the skin transplantation, followed by daily injection until the end point of rejection of the skin graft.
A patch of hair at the back of Balb/c mice was removed by 8% Na2S solution. On the next day, a wound bed of approximately 1 cm^2 was produced by removing the skin surgically, and then a piece of full-thickness tail skin of 1 cm^2 from sex-matched donor C57BL/6J mice was placed onto the wound bed. The surgical site was covered and protected with a layer of paraffin gauze, and a covering plaster was applied. The plaster was removed 6 days after transplantation^[1], and the recipient mice were monitored daily for the viability of the allograft. The end point of rejection was taken as only less than 10% of the allograft remained viable^[2].

Setting [5] is: 0.5 hr after carrageenin, 0.2 mg/kg/d.
Where [6] appears, read: Week 5 (one week after termination of treatment).
Setting [7] is: human hepatitis B virus, 2.2.15 cell line, 48 h.

For `C[C@@H]1C[C@H]2[C@@H]3CCC4=CC(=O)C=C[C@]4(C)[C@@]3(F)[C@@H](O)C[C@]2(C)[C@@]1(O)C(=O)CO` [DXM, Dexamethasone], in assay [1] (setting [5]), the “Inhibition Index 0.5 hr” value is on record as 63.0** % and the “Swelling 0.5 hr” value was found to be 2.74 ± 0.10 cm. Also, the Pre-challenge circumference in assay [1] (right foot, 0.2 mg/kg/d i.p., two weeks) turned out to be 2.49 ± 0.05 cm.

Regarding “IVTNTT [CMS-017, Ile-Val-Thr-Asn-Thr-Thr]”, the “Serum DHBV DNA titer” value in assay [2] (Pre-treatment, 200 μg/kg/day i.m. group) is on record as 2207.0 ± 237.5 volume; in assay [2] (Week 1, 200 μg/kg/day i.m.) it was 1991.8 ± 378.9 volume; in assay [2] (Week 2, 200 μg/kg/day i.m.), 1925.0 ± 549.9 volume; in assay [2] (Week 3, 200 μg/kg/day i.m.), 1743.9 ± 555.0 volume; in assay [2] (Week 4, 200 μg/kg/day i.m.) it was 1544.9 ± 389.7 volume; in assay [2] (setting [6]), 1742.7 ± 437.0 volume. In addition, the “Serum DHBsAg O.D. value” in assay [2] (Pre-treatment, 200 μg/kg/day i.m. group, 490 nm) is on record as 0.928 ± 0.402; in assay [2] (Week 1, 200 μg/kg/day i.m.), 0.761 ± 0.328; in assay [2] (Week 2, 200 μg/kg/day i.m.) it was 0.668 ± 0.310; in assay [2] (Week 3, 200 μg/kg/day i.m.), 0.551 ± 0.268; in assay [2] (Week 4, 200 μg/kg/day i.m.), 0.479 ± 0.279; in assay [2] (setting [6]), 0.488 ± 0.182. Further, the “rebound of serum DHBV DNA and DHBsAg” value in assay [2] (upon discontinuation of treatment for 7 days) is given as “rebound was not observed”. The “Inhibition ratio to HBeA” value in assay [3] (2.2.15 cells, 8 days) was determined as 62.2%*. Moreover, in assay [3] (2.2.15 cells, 8 days), the “Inhibition ratio to HBsA:” value stood at 68.6%*. Further, the “% HBV-DNA inhibition” value in assay [4] (2.2.15 cells) amounted to 90.8%*.

Turning to `C[C@H](N)C(=O)N[C@@H](C)C(=O)N[C@@H](Cc1ccccc1)C(=O)O` [CMS-023, Ala Ala Phe] (H-Ala-Ala-Phe-OH; N-terminus and C-terminus assumed), in assay [3] (setting [7]), the “Inhibition ratio to HBeA” value turned out to be 53.7%* and the “Inhibition ratio to HBsA:” value worked out at 58.4%*. The “% HBV-DNA inhibition” value in assay [4] (human hepatitis B virus, 2.2.15 cell line) is recorded as 70.8%*.

As to AAHHPDDFNPSV [CMS-014], the “MST (mean survival time of skin allograft)” value in the assay with skin allograft (125 μg/kg/day i.p.) is on record as 10.0 ± 0.5 days; in the assay with skin allograft (250 μg/kg/day i.p.), 9.8 ± 0.5 days; in the assay on skin allograft (500 μg/kg/day i.p.) it was 9.8 ± 0.4 days.
